Where two headings read alike, the source gives them in different places.

Series [1] can be described thus: Solubility of Rebaudioside D (crystalline vs amorphous) in water. The class given is physicochemical. The conditions noted are these: for solubility: room temperature, % = grams soluble in 100 grams of solvent. The procedure:
Hereinafter, unless specified otherwise the solubility of material is determined in RO (reverse osmosis) water at room temperature. Where the solubility is expressed as "%" it to be understood as number of grams of material soluble in 100 grams of solvent.
100g of crystalline Rebaudioside D, produced by PureCircle Sdn Bhd, with 98.1% purity (on anhydrous basis) was dissolved in 500 mL aqueous ethanol, containing 50% (vol.) ethanol. The solution was maintained at 50°C and dried using a YC-015 laboratory spray drier (Shanghai Pilotech Instrument & Equipment Co. Ltd., China) operating at 175°C inlet and 100°C outlet temperatures. […]

The conditions of series [2]: cited from earlier work.
The conditions of series [3]: water, room temperature; cited from earlier work.
Setting [4] is: 50°C, solution crystallized after cooling down to room temperature (20°C).
[5] abbreviates: 100°C, solution crystallized after cooling down to room temperature (20°C).

With `C=C1C[C@@]23CC[C@H]4[C@@](C)(CCC[C@@]4(C)C(=O)O[C@@H]4O[C@H](CO)[C@@H](O)[C@H](O)[C@H]4O[C@@H]4O[C@H](CO)[C@@H](O)[C@H](O)[C@H]4O)[C@@H]2CC[C@]1(O[C@@H]1O[C@H](CO)[C@@H](O)[C@H](O[C@@H]2O[C@H](CO)[C@@H](O)[C@H](O)[C@H]2O)[C@H]1O[C@@H]1O[C@H](CO)[C@@H](O)[C@H](O)[C@H]1O)C3` [Rebaudioside D], the “solubility when heat is applied” value in series [1] (water, heated, upon cooling to room temperature crystallizes back out from the solution) was “up to 0.5%”. Also, the solubility in series [1] (water) is 0.05%. As for `C=C1C[C@@]23CC[C@H]4[C@@](C)(CCC[C@@]4(C)C(=O)O[C@@H]4O[C@H](CO)[C@@H](O)[C@H](O)[C@H]4O)[C@@H]2CC[C@]1(O[C@@H]1O[C@H](CO)[C@@H](O)[C@H](O[C@@H]2O[C@H](CO)[C@@H](O)[C@H](O)[C@H]2O)[C@H]1O[C@@H]1O[C@H](CO)[C@@H](O)[C@H](O)[C@H]1O)C3` [Form 1 Hydrate, Rebaudioside A], the “Rate of dissolution in H2O at 25°C” value in series [2] (in 60 minutes) is “Very low (<0.2% in 60 minutes)”. On to `C=C1C[C@@]23CC[C@H]4[C@@](C)(CCC[C@@]4(C)C(=O)O[C@@H]4O[C@H](CO)[C@@H](O)[C@H](O)[C@H]4O[C@@H]4O[C@H](CO)[C@@H](O)[C@H](O)[C@H]4O)[C@@H]2CC[C@]1(O[C@@H]1O[C@H](CO)[C@@H](O)[C@H](O[C@@H]2O[C@H](CO)[C@@H](O)[C@H](O)[C@H]2O)[C@H]1O[C@@H]1O[C@H](CO)[C@@H](O)[C@H](O)[C@H]1O)C3` [crystalline Rebaudioside D, Rebaudioside D], for which the “Solubility, % (in water)” value in series [1] (20°C) was 0.05%; in series [1] (setting [4]) it was 0.2%; in series [1] (setting [5]) it was 0.5%. This compound returned a solubility in series [1] (water) of 0.05%. As to `C=C1C[C@@]23CC[C@H]4[C@@](C)(CCC[C@@]4(C)C(=O)O[C@@H]4O[C@H](CO)[C@@H](O)[C@H](O)[C@H]4O)[C@@H]2CC[C@]1(O[C@@H]1O[C@H](CO)[C@@H](O)[C@H](O[C@@H]2O[C@H](CO)[C@@H](O)[C@H](O)[C@H]2O)[C@H]1O[C@@H]1O[C@H](CO)[C@@H](O)[C@H](O)[C@H]1O)C3` [Form 3 Solvate, Rebaudioside A], the “Rate of dissolution in H2O at 25°C” value in series [2] (in 5 minutes) is “High (>30% in 5 minutes)”. Consider `C=C1C[C@@]23CC[C@H]4[C@@](C)(CCC[C@@]4(C)C(=O)O[C@@H]4O[C@H](CO)[C@@H](O)[C@H](O)[C@H]4O)[C@@H]2CC[C@]1(O[C@@H]1O[C@H](CO)[C@@H](O)[C@H](O[C@@H]2O[C@H](CO)[C@@H](O)[C@H](O)[C@H]2O)[C@H]1O[C@@H]1O[C@H](CO)[C@@H](O)[C@H](O)[C@H]1O)C3` [Rebaudioside A], for which the thermodynamic equilibrium solubility in series [3] is 0.8%. As to `C=C1C[C@@]23CC[C@H]4[C@@](C)(CCC[C@@]4(C)C(=O)O[C@@H]4O[C@H](CO)[C@@H](O)[C@H](O)[C@H]4O)[C@@H]2CC[C@]1(O[C@@H]1O[C@H](CO)[C@@H](O)[C@H](O[C@@H]2O[C@H](CO)[C@@H](O)[C@H](O)[C@H]2O)[C@H]1O[C@@H]1O[C@H](CO)[C@@H](O)[C@H](O)[C@H]1O)C3` [Form 2 Anhydrous, Rebaudioside A], the “Rate of dissolution in H2O at 25°C” value in series [2] (in 5 minutes) was “Intermediate (<30% in 5 minutes)”. In the case of `C=C1C[C@@]23CC[C@H]4[C@@](C)(CCC[C@@]4(C)C(=O)O[C@@H]4O[C@H](CO)[C@@H](O)[C@H](O)[C@H]4O[C@@H]4O[C@H](CO)[C@@H](O)[C@H](O)[C@H]4O)[C@@H]2CC[C@]1(O[C@@H]1O[C@H](CO)[C@@H](O)[C@H](O[C@@H]2O[C@H](CO)[C@@H](O)[C@H](O)[C@H]2O)[C@H]1O[C@@H]1O[C@H](CO)[C@@H](O)[C@H](O)[C@H]1O)C3` [amorphous Reb D, Rebaudioside D], the “Solubility, % (in water)” value in series [1] (20°C) is listed as 0.1%; in series [1] (setting [4]), 0.5%; in series [1] (setting [5]), 1.1%. The solubility in series [1] (water) was 0.2%. Consider `C=C1C[C@@]23CC[C@H]4[C@@](C)(CCC[C@@]4(C)C(=O)O[C@@H]4O[C@H](CO)[C@@H](O)[C@H](O)[C@H]4O)[C@@H]2CC[C@]1(O[C@@H]1O[C@H](CO)[C@@H](O)[C@H](O[C@@H]2O[C@H](CO)[C@@H](O)[C@H](O)[C@H]2O)[C@H]1O[C@@H]1O[C@H](CO)[C@@H](O)[C@H](O)[C@H]1O)C3` [Form 4 Amorphous, Rebaudioside A], for which the “Rate of dissolution in H2O at 25°C” value in series [2] (in 5 minutes) is on record as “High (>35% in 5 minutes)”.

These data come from patent EP3181574A1, “HIGHLY SOLUBLE REBAUDIOSIDE D” (Purecircle USA, priority 2010, dated 2012).
